Results as given in patent US20140249135A1, “PIM KINASE INHIBITORS AND METHODS OF THEIR USE” (NOVARTIS AG, priority 2007, published 2014).
pIC50: −log10 of the molar value.

Columns and labels:
Pim1 kinase = Pim1 kinase (Homo sapiens, UniProt P11309); assay: Pim1 ATP depletion assay; type: biochemical; settings: Pim1 ATP depletion assay; read-out: IC50 (μM) PIM1;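 also: Luciferase-luciferin luminescence readout of residual ATP after PIM1 transfers phosphate to a peptide substrate, 40 µM ATP added, reaction run to roughly half ATP consumption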
Chain of Pim1 kinase (P11309 whole entry): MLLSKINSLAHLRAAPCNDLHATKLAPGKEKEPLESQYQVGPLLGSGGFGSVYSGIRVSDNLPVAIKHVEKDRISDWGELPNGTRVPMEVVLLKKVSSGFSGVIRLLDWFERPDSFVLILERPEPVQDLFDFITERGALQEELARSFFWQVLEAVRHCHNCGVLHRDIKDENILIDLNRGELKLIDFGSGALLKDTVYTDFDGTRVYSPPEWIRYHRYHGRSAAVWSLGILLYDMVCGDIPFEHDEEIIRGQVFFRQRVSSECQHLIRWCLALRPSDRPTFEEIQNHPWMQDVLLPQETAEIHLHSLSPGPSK

Pim2 kinase = Pim2 kinase (Homo sapiens, UniProt Q9P1W9); assay: Pim2 ATP depletion assay; type: biochemical; settings: read-out: IC50 (μM) PIM2;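 also: Luciferase-based luminescent readout of ATP remaining after PIM2 phosphorylates a BAD peptide, final 5 nM enzyme, 4 µM ATP, 10 µM peptide, 2.5% DMSO, run to roughly half ATP consumption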
Chain of Pim2 kinase (Q9P1W9 whole entry): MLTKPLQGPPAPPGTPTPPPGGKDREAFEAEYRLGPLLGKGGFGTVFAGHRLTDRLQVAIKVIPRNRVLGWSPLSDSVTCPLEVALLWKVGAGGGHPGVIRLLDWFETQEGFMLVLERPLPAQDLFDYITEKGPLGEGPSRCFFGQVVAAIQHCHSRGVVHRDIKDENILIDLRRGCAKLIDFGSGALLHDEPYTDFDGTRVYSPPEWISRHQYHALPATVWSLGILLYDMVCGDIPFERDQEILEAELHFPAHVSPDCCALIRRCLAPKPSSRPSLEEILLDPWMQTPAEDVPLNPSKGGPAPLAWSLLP

Pim3 kinase = Pim3 kinase (Homo sapiens, UniProt Q86V86); assay: Pim3 ATP depletion assay; type: biochemical; settings: read-out: IC50 (μM) PIM3
HEL 92.1.7 cells = assay: Cell proliferation assay (CellTiter-Glo), HEL 92.1.7; type: cell-based; settings: Homo sapiens, read-out: EC50 (μM) HEL 92.1.7
Method in brief: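 CellTiter-Glo luminescence was read after 3-day compound exposure at 37 °C of cells plated at 1000/well in RPMI1640 with 10% FBS. Signal was normalised between DMSO-treated and control-compound-treated wells. EC50 is the concentration giving 50% of maximal effect.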

PC3 cells = assay: Cell proliferation assay (CellTiter-Glo), PC3; type: cell-based; settings: Homo sapiens, PC-3
Procedure: HEL 92.1.7 cells (ATTC No. TIB-180, an erythroleukemia line derived from malignant peripheral blood), MV4-11 cells (ATCC No. CRL-9591, a human acute monocytic leukemia line) and PC3 cells (ATCC No. CRL-1435, a human prostatic adenocarcinoma line) were cultured in RPMI1640 supplemented with 10% FBS, sodium pyruvate and antibiotics. Cells were plated in the same medium at a density of 1000 cells per well into 96 well tissue culture plates, with outside wells vacant, on the day of assay.
(§1) Test compounds supplied in DMSO were diluted into DMSO at 500 times the desired final concentrations before dilution into culture media to 2 times final concentrations. Equal volumes of 2× compounds were added to the cells in 96 well plates and incubated at 37° C. for 3 days.
(§2) After 3 days plates were equilibrated to room temperature and equal volume of CellTiter-Glow Reagent (Promega) was added to the culture wells. The plates were agitated briefly and luminescent signal was measured with luminometer. The percent inhibition of the signal seen in cells treated with DMSO alone vs. cells treated with control compound was calculated and used to determine EC50 values (i.e., the concentration of a test compound that is required to obtain 50% of the maximum effect in the cells) for tested compounds, as shown in Example 763.

[1] = biological target: T1, human full length PKCE enzyme (Homo sapiens, UniProt Q02156); assay: In vitro PKCE assay; type: biochemical; settings: 10 nM enzyme, 40 uM peptide substrate, 20 uM ATP, KinaseGlo Plus readout; read-out: PKCε IC50
T1 construct: human full length PKCE enzyme purchased from InVitrogen; purchased InVitrogen
T1 sequence (Q02156 1-737): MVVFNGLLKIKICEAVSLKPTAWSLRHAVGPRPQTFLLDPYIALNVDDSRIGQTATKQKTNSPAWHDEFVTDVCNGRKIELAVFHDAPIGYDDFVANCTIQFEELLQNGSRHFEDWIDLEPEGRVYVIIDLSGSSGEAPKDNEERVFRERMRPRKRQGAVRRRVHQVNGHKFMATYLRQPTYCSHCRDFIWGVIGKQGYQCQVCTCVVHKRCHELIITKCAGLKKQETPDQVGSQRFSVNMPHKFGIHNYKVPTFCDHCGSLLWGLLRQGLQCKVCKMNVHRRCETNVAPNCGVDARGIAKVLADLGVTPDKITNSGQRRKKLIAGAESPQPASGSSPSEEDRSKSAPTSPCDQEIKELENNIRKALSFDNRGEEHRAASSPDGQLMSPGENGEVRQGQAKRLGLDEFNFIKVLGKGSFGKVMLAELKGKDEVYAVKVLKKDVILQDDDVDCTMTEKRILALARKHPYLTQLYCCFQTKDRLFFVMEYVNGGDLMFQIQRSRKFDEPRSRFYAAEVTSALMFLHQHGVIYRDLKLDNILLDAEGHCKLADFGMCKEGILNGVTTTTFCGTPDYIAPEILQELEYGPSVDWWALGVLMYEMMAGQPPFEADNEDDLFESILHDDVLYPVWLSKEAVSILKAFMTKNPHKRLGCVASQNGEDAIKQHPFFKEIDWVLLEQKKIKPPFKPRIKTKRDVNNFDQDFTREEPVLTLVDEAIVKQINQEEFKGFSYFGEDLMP

KDR kinase = KDR kinase (Homo sapiens, UniProt P35968); assay: KDR AlphaScreen assay; settings: KDR IC50 (μM)
Chain of KDR kinase (P35968 20-1356): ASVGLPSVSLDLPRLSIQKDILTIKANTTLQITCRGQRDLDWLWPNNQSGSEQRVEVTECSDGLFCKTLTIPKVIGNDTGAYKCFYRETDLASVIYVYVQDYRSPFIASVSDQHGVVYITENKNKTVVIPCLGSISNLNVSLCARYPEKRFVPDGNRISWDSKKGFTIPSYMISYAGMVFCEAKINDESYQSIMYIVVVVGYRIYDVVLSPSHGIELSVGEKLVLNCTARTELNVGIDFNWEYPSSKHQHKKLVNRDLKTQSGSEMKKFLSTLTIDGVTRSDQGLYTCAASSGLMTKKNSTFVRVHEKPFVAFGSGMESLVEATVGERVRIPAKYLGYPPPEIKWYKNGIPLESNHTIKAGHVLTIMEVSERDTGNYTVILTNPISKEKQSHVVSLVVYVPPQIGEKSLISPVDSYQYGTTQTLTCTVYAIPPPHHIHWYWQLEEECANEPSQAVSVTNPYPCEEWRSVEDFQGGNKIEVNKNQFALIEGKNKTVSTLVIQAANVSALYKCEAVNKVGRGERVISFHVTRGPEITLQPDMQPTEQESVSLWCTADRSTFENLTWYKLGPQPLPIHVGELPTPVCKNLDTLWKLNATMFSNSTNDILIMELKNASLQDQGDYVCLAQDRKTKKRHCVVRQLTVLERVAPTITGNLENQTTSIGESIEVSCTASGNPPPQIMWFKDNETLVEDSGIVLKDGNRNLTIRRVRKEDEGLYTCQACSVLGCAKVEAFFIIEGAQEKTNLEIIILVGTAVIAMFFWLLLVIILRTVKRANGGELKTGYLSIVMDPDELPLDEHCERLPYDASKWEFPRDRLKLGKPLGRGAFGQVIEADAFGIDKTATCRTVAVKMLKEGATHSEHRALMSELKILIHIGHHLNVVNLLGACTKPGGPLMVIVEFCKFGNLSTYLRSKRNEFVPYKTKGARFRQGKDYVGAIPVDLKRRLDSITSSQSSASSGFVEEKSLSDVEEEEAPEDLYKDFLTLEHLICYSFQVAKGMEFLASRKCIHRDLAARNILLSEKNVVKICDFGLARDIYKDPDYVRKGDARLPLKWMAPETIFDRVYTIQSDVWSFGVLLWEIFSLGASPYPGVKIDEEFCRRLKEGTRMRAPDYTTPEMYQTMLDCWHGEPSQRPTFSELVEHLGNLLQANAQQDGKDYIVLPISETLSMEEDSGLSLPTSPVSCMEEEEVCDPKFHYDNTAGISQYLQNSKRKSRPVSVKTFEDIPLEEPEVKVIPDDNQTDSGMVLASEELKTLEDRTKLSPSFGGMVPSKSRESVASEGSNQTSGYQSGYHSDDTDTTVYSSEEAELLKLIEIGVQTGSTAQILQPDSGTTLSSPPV

[2] = test system: KMS 11 (human myeloma cell line); assay: Cell proliferation assay (CellTiter-Glo), KMS 11; type: cell-based; settings: KMS11 cells, read-out: EC50 (μM) KMS11
Procedure: (§3) KMS 11 (human myeloma cell line), were cultured in IMDM supplemented with 10% FBS, sodium pyruvate and antibiotics. Cells were plated in the same medium at a density of 2000 cells per well into 96 well tissue culture plates, with outside wells vacant, on the day of assay. MM1.s (human myeloma cell line), were cultured in RPMI1640 supplemented with 10% FBS, sodium pyruvate and antibiotics. Cells were plated in the same medium at a density of 5000 cells per well into 96 well tissue culture plates, with outside wells vacant, on the day of assay.
as §1, §2

[3] = test system: MM1.s (human myeloma cell line); assay: Cell proliferation assay (CellTiter-Glo), MM1.s; type: cell-based; settings: MM1.s cells, read-out: EC50 (μM) MM1.s
Procedure: as §3, §1, §2

Row | IC50 (Pim1 kinase) | IC50 (Pim2 kinase) | IC50 (Pim3 kinase) | EC50 (PC3 cells) | pIC50 [1] | IC50 (KDR kinase) | EC50 [2] | EC50 [3] | Compound | EC50 (HEL 92.1.7 cells)
1 | < 1 µM | < 1 µM | < 1 µM | 5 to 10 µM | > 6.00 | 10 to 25 µM |  |  | Nc1nccnc1C(=O)Nc1ccncc1N1CCCC(N)C1 (centres unmarked) [Example 173, 3-amino-N-[3-(3-aminopiperidin-1-yl)pyridin-4-yl]pyrazine-2-carboxamide] | 1 to 5 µM
2 | < 1 µM | < 1 µM | < 1 µM |  |  |  | 1 to 5 µM | 5 to 10 µM | Nc1ccc(-c2c(F)cccc2F)nc1C(=O)Nc1cnccc1N1CC[C@H](F)[C@@H](N)C1 [Example 276, 3-Amino-6-(2,6-difluoro-phenyl)-pyridine-2-carboxylic acid (3-amino-4-fluoro-3,4,5,6-tetrahydro-2H-[1,4′]bipyridinyl-3′-yl)-amide] | 
3 | < 1 µM | < 1 µM | < 1 µM |  |  |  | 1 to 5 µM | 1 to 5 µM | Nc1ccc(-c2c(F)cccc2F)nc1C(=O)Nc1cnccc1N1CCCC2(CCNC2)C1 (centres unmarked) [Example 290, 3-Amino-6-(2,6-difluoro-phenyl)-pyridine-2-carboxylic acid [4-(2,7-diaza-spiro[4.5]dec-7-yl)-pyridin-3-yl]-amide] | 
4 | < 1 µM | < 1 µM | < 1 µM |  |  |  | < 1 µM | < 1 µM | CC(C)NC(=O)c1ccc(F)c(-c2ccc(N)c(C(=O)Nc3cnccc3N3C[C@@H](N)C[C@@H](F)C3)n2)c1 [Example 292, 3-Amino-6-(2-fluoro-5-isopropylcarbamoyl-phenyl)-pyridine-2-carboxylic acid (3-amino-5-fluoro-3,4,5,6-tetra-hydro-2H-[1,4′]bipyridinyl-3′-yl)-amide] | 
5 | < 1 µM | < 1 µM | < 1 µM |  |  |  | < 1 µM | < 1 µM | CO[C@@H]1C[C@H](N)CN(c2ccncc2NC(=O)c2nc(-c3cc(C(=O)NC(C)C)ccc3F)ccc2N)C1 [Example 298, 3-Amino-6-(2-fluoro-5-isopropylcarbamoyl-phenyl)-pyridine-2-carboxylic acid (3-amino-5-methoxy-3,4,5,6-tetra-hydro-2H-[1,4′]bipyridinyl-3′-yl)-amide] | 
6 | < 1 µM | < 1 µM | < 1 µM | 5 to 10 µM | 5.00 to 6.00 | > 25 µM |  |  | CCOc1ccc(Cl)c(-c2ccc(N)c(C(=O)Nc3cnccc3N3CCC[C@H](N)C3)n2)c1 [Example 322, 3-amino-6-(2-chloro-5-ethoxy-phenyl)-pyridine-2-carboxylic acid ((S)-3-amino-3,4,5,6-tetrahydro-2H-[1,4′]bi-pyridinyl-3′-yl)-amide] | < 1 µM
7 | < 1 µM | < 1 µM | < 1 µM | 1 to 5 µM |  |  |  |  | Nc1ccc(-c2cc(C(=O)Nc3ccccc3)ccc2F)nc1C(=O)Nc1cnccc1N1CCC[C@H](N)C1 [Example 323, 3-amino-6-(2-fluoro-5-phenylcarbamoyl-phenyl)-pyridine-2-carboxylic acid ((S)-3-amino-3,4,5,6-tetra-hydro-2H-[1,4′]bipyridinyl-3′-yl)-amide] | < 1 µM
8 | < 1 µM | < 1 µM | < 1 µM | < 1 µM | > 6.00 | < 1 µM |  |  | N#Cc1ccccc1-c1cnc(N)c(C(=O)Nc2cnccc2N2CCCC(N)C2)n1 (centres unmarked) [Example 345, 3-amino-6-(2-cyano-phenyl)-pyrazine-2-carboxylic acid (3-amino-3,4,5,6-tetrahydro-2H-[1,4′]bipyridinyl-3′-yl)-amide] | < 1 µM
9 | < 1 µM |  | < 1 µM | 1 to 5 µM | > 6.00 |  |  |  | Nc1ncc(-c2ccccc2C(F)(F)F)nc1C(=O)Nc1cnccc1N1CCCC(N)C1 (centres unmarked) [Example 348, 3-amino-6-(2-trifluoromethyl-phenyl)-pyrazine-2-carboxylic acid (3-amino-3,4,5,6-tetra-hydro-2H-[1,4′]bipyridinyl-3′-yl)-amide] | < 1 µM
10 | < 1 µM | 1 to 10 µM | < 1 µM | 1 to 5 µM | > 6.00 | 1 to 10 µM |  |  | Nc1ncc(-c2ccccc2)nc1C(=O)Nc1ccccc1N1CCNCC1 [Example 382, 3-amino-6-phenyl-pyrazine-2-carboxylic acid (2-piperazin-1-yl-phenyl)-amide] | 
11 | < 1 µM | 1 to 10 µM | 1 to 10 µM | 1 to 5 µM | > 6.00 | 1 to 10 µM |  |  | Nc1ncc(-c2cccc3ccccc23)nc1C(=O)Nc1ccccc1N1CCNCC1 [Example 389, 3-amino-6-naphthalen-1-yl-pyrazine-2-carboxylic acid (2-piperazin-1-yl-phenyl)-amide] | 
12 | < 1 µM | < 1 µM | < 1 µM | > 10 µM |  |  |  |  | COc1ccncc1-c1ccc(N)c(C(=O)Nc2cnccc2N2CCC[C@H](N)C2)n1 [Example 421, 5-amino-4′-methoxy-[2,3′]bi-pyridinyl-6-carboxylic acid ((S)-3-amino-3,4,5,6-tetrahydro-2H-[1,4′]bipyridinyl-3′-yl)-amide] | 1 to 5 µM
13 | < 1 µM | < 1 µM | < 1 µM | > 10 µM | 4.60 to 5.00 | > 25 µM |  |  | Nc1ccc(-c2ccncc2Cl)nc1C(=O)Nc1cnccc1N1CCC[C@H](N)C1 [Example 422, 5-amino-3′-chloro-[2,4′]bi-pyridinyl-6-carboxylic acid ((S)-3-amino-3,4,5,6-tetrahydro-2H-[1,4′]bipyridinyl-3′-yl)-amide] | 1 to 5 µM
14 | < 1 µM | < 1 µM | < 1 µM | 5 to 10 µM | 5.00 to 6.00 | > 25 µM |  |  | Nc1ccc(-c2cccc(F)c2F)nc1C(=O)Nc1cnccc1N1CCC[C@H](N)C1 [Example 424, 3-amino-6-(2,3-difluoro-phenyl)-pyridine-2-carboxylic acid ((S)-3-amino-3,4,5,6-tetrahydro-2H-[1,4′]bipyridinyl-3′-yl)-amide] | 1 to 5 µM
15 | < 1 µM |  | < 1 µM |  |  |  | 1 to 5 µM | 1 to 5 µM | N[C@H]1CCCN(c2ccncc2NC(=O)c2ccc(F)c(-c3c(F)cccc3F)n2)C1 [Example 445] | 

Row | Compound | IC50 (Pim1 kinase) | IC50 (Pim2 kinase) | IC50 (Pim3 kinase) | EC50 (PC3 cells) | pIC50 [1] | IC50 (KDR kinase) | EC50 [2] | EC50 [3] | EC50 (HEL 92.1.7 cells)
16 | Nc1nccnc1C(=O)Nc1cnccc1N1CCC[C@H](N)C1 [Example 176] |  | < 1 µM | < 1 µM | 1 to 5 µM | > 6.00 | 1 to 10 µM |  |  | 1 to 5 µM
